Holding throughout (format): in vivo
Conditions in all cases: sprayed after 8 days, evaluated after 13 days

For experiment [1], the system named is Chenopodium album (CHEAL). The experiment can be described thus: Glasshouse post-emergence phytotoxicity test, Chenopodium album (CHEAL). As for the experimental part:
(§1) Seeds of Amaranthus retroflexus (AMARE), Echinochloa crus-galli (ECHCG), Digitaria sanguinalis (DIGSA), Lolium perenne (LOLPE), Alopecurus myosuroides (ALOMY), Chenopodium album (CHEAL), and Ipomoea hederacea (IPOHE) were sown in standard sterilised soil in pots. After cultivation for 8 days under controlled conditions in a glasshouse (at 24/16° C., day/night; 14 hours light; 65% humidity), the plants were sprayed at 500 l/Ha with an aqueous spray solution derived from the formulation of the technical active ingredients in a small amount of acetone and a solvent and emulsifier mixture referred to as IF50 (11.12% Emulsogen EL360 TM+44.44% N-methylpyrrolidone+44.44% Dowanol DPM glycol ether), to create a 50 g/l solution which was then diluted using 0.2% Genapol XO80 (CAS Number: 9043-30-5) as diluent to give the desired final dose of test compound. Where active ingredients were applied as mixtures, aqueous spray solutions were prepared as above, containing both active ingredients. The test plants were then grown under controlled conditions in a glasshouse (at 24/16° C., day/night; 14 hours light; 65% humidity) and watered twice daily. After 13 days, the test was evaluated visually for percentage phytotoxicity to the plants (where 100=total damage to plant; 0=no damage to plant) when compared to control untreated plants. Two to four replicates were applied for each treatment in a randomised block test design.
(§2) 22., E=X+Y−(X*Y/100), where • X=average percent phytotoxicity of herbicide A when applied at a certain rate • Y=average percent phytotoxicity using herbicide B when applied at a certain rate • E=the expected effect of the mixture of herbicides A and B as calculated from the Colby formula.

Experiment [2] concerns Ipomoea hederacea (IPOHE). The experiment can be described thus: Glasshouse post-emergence phytotoxicity test, Ipomoea hederacea (IPOHE). The procedure: as §1, §2
For experiment [3], the system named is Amaranthus retroflexus (AMARE). The experiment can be described thus: Glasshouse post-emergence phytotoxicity test, Amaranthus retroflexus (AMARE). The procedure: as §1, §2
Experiment [4] relates to Alopecurus myosuroides (ALOMY). The experiment can be described thus: Glasshouse post-emergence phytotoxicity test, Alopecurus myosuroides (ALOMY). The procedure:
as §1, §2

The subject of experiment [5] is Digitaria sanguinalis (DIGSA). The experiment can be described thus: Glasshouse post-emergence phytotoxicity test, Digitaria sanguinalis (DIGSA). The procedure: as §1, §2
Another experiment concerns Lolium perenne (LOLPE). The experiment can be described thus: Glasshouse post-emergence phytotoxicity test, Lolium perenne (LOLPE). The procedure: as §1, §2
In experiment [6] the test system is Echinochloa crus-galli (ECHCG). The experiment is described as follows: Glasshouse post-emergence phytotoxicity test, Echinochloa crus-galli (ECHCG). The procedure: as §1, with “Where active ingredients were applied as mixtures, aqueous spray solutions were prepared as above, containing both active ingredients. The test plants were then grown under controlled conditions in a glasshouse (at 24/16° C., day/night; 14 hours light; 65% humidity) and watered twice daily.” left out, “Two to four replicates were applied for each treatment in a randomised block test design.” left out
as §2

As to `c1cc[n+]2c(c1)-c1cccc[n+]1CC2` [B-III], the Observed percentage phytotoxicity is 15% in experiment [1] (rate 15 g/ha), 5% in experiment [2] (rate 7.5 g/ha) and 8% in experiment [3] (rate 3.75 g/ha).
Take `C=CCOC(=O)C(C)(C)OC(=O)c1cc(-n2c(=O)cc(C(F)(F)F)n(C)c2=O)ccc1Cl` [B-I]: the Observed percentage phytotoxicity was 0% in experiment [4] (rate 0.039 g/ha); 8% in experiment [4] (rate 0.625 g/ha); 5% in experiment [5] (rate 0.156 g/ha); 10% in experiment [5] (rate 0.313 g/ha); 15% in experiment [5] (rate 0.625 g/ha); 20% in experiment [1] (rate 0.156 g/ha). In addition, the Observed percentage phytotoxicity in experiment [1] (rate 0.313 g/ha) is listed as 40%; in the experiment on Lolium perenne (LOLPE) (rate 0.039 g/ha) it was 0%; in the experiment on Lolium perenne (LOLPE) (rate 0.313 g/ha), 5%; in the experiment on Lolium perenne (LOLPE) (rate 0.625 g/ha), 5%; in experiment [6] (rate 0.625 g/ha) it was 5%; in experiment [3] (rate 0.078 g/ha), 33%.
For `COC(=O)CCNC(=O)C(C)Sc1cc(-n2c(=O)cc(C(F)(F)F)n(C)c2=O)c(F)cc1Cl` (stereo not drawn) [B-II], the Observed percentage phytotoxicity in experiment [5] (rate 0.313 g/ha) came to 8%; in experiment [1] (rate 0.078 g/ha), 15%; in experiment [1] (rate 0.156 g/ha), 18%; in experiment [1] (rate 0.313 g/ha) it was 18%; in experiment [2] (rate 0.156 g/ha) it was 18%; in experiment [2] (rate 0.313 g/ha), 40%. For the same molecule, the Observed percentage phytotoxicity is listed as 5% with Lolium perenne (LOLPE) (rate 0.156 g/ha), 3% in the experiment on Lolium perenne (LOLPE) (rate 0.313 g/ha) and 30% in experiment [3] (rate 0.078 g/ha).
Take `COC(=O)[C@@H](C)O/N=C/c1cc(-n2c(=O)cc(C(F)(F)F)n(C)c2=O)c(F)cc1Cl` [A]: the Observed percentage phytotoxicity in experiment [4] (rate 0.039 g/ha) is recorded as 0%; in experiment [4] (rate 0.313 g/ha), 3%; in experiment [5] (rate 0.156 g/ha), 3%; in experiment [5] (rate 0.313 g/ha), 9%; in experiment [1] (rate 0.156 g/ha), 24%; in experiment [1] (rate 0.313 g/ha), 31%. In addition, the Observed percentage phytotoxicity in experiment [1] (rate 0.625 g/ha) worked out at 33%; in experiment [2] (rate 0.078 g/ha), 20%; in experiment [2] (rate 0.313 g/ha), 68%; in the experiment with Lolium perenne (LOLPE) (rate 0.078 g/ha), 3%; with Lolium perenne (LOLPE) (rate 0.156 g/ha), 0%; in the experiment with Lolium perenne (LOLPE) (rate 0.313 g/ha), 5%. Besides, the Observed percentage phytotoxicity is reported as 1% in experiment [6] (rate 0.313 g/ha), 39% in experiment [3] (rate 0.078 g/ha) and 68% in experiment [3] (rate 0.156 g/ha).

The values are drawn from US20260182572A1, “HERBICIDAL COMPOSITIONS” (SYNGENTA CROP PROTECTION AG, priority 2022, published 2026).
